Measured values reported in patent US6638974B1, “Ascorbyl esters for the treatment of cancer” (University of South Florida, priority 1999, dated 2003).

Experiments:
IGF1-R [1] = assay: IGF1-R expression by Western immunoblotting, PANC-1; format: cell-based, human; settings: 150 μM, 24 hours, vs untreated control
Description: PANC-1 cells were cultured for 24 hours in MEM+10% FBS and treated with 150 μM Asc-S for 24 hours, Asc-S treated and untreated (control). PANC-1 cells were analyzed by Western immunoblotting as follows: Cell lysates of treated and non-treated PANC-1 cells were obtained. The lysates were sonicated, centrifuged and protein concentration was determined with Pierce BCA protein kit (Pierce Laboratories). A 20 μg of protein was loaded and resolved at 4% to 15% polyacrylamide gradient gel by sodium dodecyl sulfate-polyacrylamide gel electrophoresis (SDS-PAGE) and electroblotted onto a nitrocellulose membrane […]. The membrane was immunoblotted with mouse anti-human IGF1-R antibodies to cross-react the 85 kDa β-subunit of the IGF1-R (Pharmingen, San Diego, Calif.) followed by anti-mouse horseradish peroxidase conjugated secondary antibody (ECL, Amersham Corporation, Arlington Heights, Ill.). Antigen bound to nitrocellulose membrane was detected with the ECL system (Amersham Corporation, Arlington Heights, Ill.). P6 cells (3T3 fibroblast cells, transfected with a CVN plasmid constituitively expressing human IGF1-R) were used as the positive control.
In additional experiments PANC-1 cells were cultured in MEM+10% FBS and treated with different concentrations of Asc-S (e.g. 50, 75, 100, 125, 150 and 200 μM) for 24 hours. […]

PDGF-R = PDGF-R expression by Western blot, PANC-1; format: cell-based, human; settings: 150 μM, 24 hours
IGF1-R [2] = assay: IGF1-R expression by Western immunoblotting, U-373; format: cell-based, human; settings: 75 μM, 24 hours, MEM+10% FBS
Description: The T98G and U-373 cells were cultured for 24 hours in MEM+10% FBS and when confluent were treated with 100 μM and 75 μM, Asc-S for 24 hours, respectively. […] In addition, it was also observed that the inhibition of IGF1-R expression was dose and time dependent. The T98G cells culture in MEM+10% FBS and treated with different concentrations of Asc-S, e.g. 50, 75, 100, 125, 150 and 175 μM for 24 hours, inhibited IGF1-R in a dose dependent fashion (FIG. 8C). The T98G cells treated with 100 μM Asc-S for different time points, e.g. 1, 3, 6, 12 and 24 hours inhibited IGF1-R in a time dependent manner (FIG. 8D). IGF1-R expression was evaluated by Western immunoblotting technique with rabbit-antihuman IGF1-R antibodies (Upstate Biotechnology, Lake Placid, N.Y.) with HRP conjugated anti-rabbit secondary antibody.
The inhibition of IGF1-R expression was also dose and time dependent. […] The following are depicted in FIG. 8B: Lane 1: P6 positive control for IGF1-R […]; Lane 2: untreated T98G cells; Lane 3: Asc-S (125 μM) treated T98G cells. […]

c-Src = c-Src expression by Western immunoblot, T98G; format: cell-based, human; settings: 100 μM, 24 h
Description: The Src oncogene product was the first to be identified as tyrosine kinase. Today the “Src-family” of non-receptor tyrosine kinases is known to be represented in every cell type and signaling system. […] This observation is further corroborated with the data on the dose and time dependent inhibition of IGF1-R described herein.
The T98G cells are exponentially grown in MEM with 10 nM human recombinant IGF-1 (Bachem California, Torrance, Calif.) or MEM with 10% FBS. The cells were disrupted in cold lysis buffer (10 μM terra sodium pyrophosphate, 20 mM HEPES, 1% Triton X-100, 100 mM NaCl, 2 ug/ml aprotinin, 2 μg/ml leupeptin and 100 μg/ml of PMSF). The crude lysates were centrifuged and protein concentration was determined by using Pierce BCA Protein Assay kit. […] Rabbit anti-human polyclonal primary antibodies to c-Src (pp60^Src (aa403-421) (Upstate Biotechnology, Lake Placid, N.Y.) were incubated for one hour at room temperature in TBST and 1% nonfat milk. The blots were then washed and incubated with anti-rabbit horseradish peroxidase conjugated secondary antibody (Oncogene Science, Inc. Uniondale, N.Y.). Antigen bound to nitrocellulose membrane was detected with the ECL system (Amersham Corp., Arlington Heights, Ill.). FIG. 9A was a positive control for c-Src from A431 cell lysate, FIGS. 9B and C were untreated and 100 μM […] treated T98G cell lysates respectively.

[3] = test system: mouse glioma cells (G-26); assay: Intracerebral G-26 glioma in C57BL/6 mice, survival; format: in vivo; settings: C57BL/6 mice with intracerebral G-26 gliomas, oral 250 mg/Kg daily; controls 27±2 days
Description: In vivo administration of Asc-S (250 mg/Kg) on intracerebral gliomas in C57BL/6 mice: The C57BL/6 mice were implanted with mouse glioma cells (G-26) by stereotaxic intracerebral implantation. […] (FIGS. 11A and B).
The body weight profiles of those mice during the experiments are shown in (FIG. 11B). The median survival observed in this study is statistically significant (P<0.05).
In vivo administration of Asc-S (250 mg/Kg) on intracerebral gliomas in C57BL/6 mice. The C57BL/6 mice were implanted with mouse glioma cells (G-26) by stereotaxic intracerebral implantation.
The body weight profiles of those mice during the experiments are shown in (FIG. 17B). The median survival observed in this study is statistically significant (P<0.05).

**Q.** Which results are given for `CCCCCCCCCCCCCCCCCC(=O)OC[C@H](O)[C@H]1OC(=O)C(O)=C1O` [Asc-S, Ascorbyl stearate]?
**A.** IGF1-R expression, PANC-1 cells (Western blotting) (IGF1-R [1]): significantly lower number of receptors; PDGF-R expression, PANC-1 (PDGF-R): did not affect; IGF1-R expression, U-373 cells (IGF1-R [2]): significantly down regulated; c-Src expression, T98G cells (c-Src): did not affect; median survival [3]: 43 ± 2 days
